Measurements from paper PMC8963105, “A Novel Modulator of the Renin–Angiotensin System, Benzoylaconitine, Attenuates Hypertension by Targeting ACE/ACE2 in Enhancing Vasodilation and Alleviating Vascular Inflammation” (Frontiers in Pharmacology, 2022).

How the values were obtained:
[1] = biological target: T1, recombinant human ACE (rhACE) (Homo sapiens, UniProt P12821); assay: SPR assay with rhACE; assay type: binding; details: rhACE on chip, 5% DMSO–1.05× PBS
T1 construct: purchased Proteintech
Description: To screen the potential targets of the MDAs in hypertension, a CVDPlatform (www.cbligand.org/CVD) was used as previously reported ([Zhang et al., 2016a]). The results of database screening were verified by virtual docking with Discovery Studio 3.5 (BIOVIA, San Diego, CA, United States) and then validated in the SPR assay. In the SPR assay, a solution of protein standards was prepared, and the concentration of recombinant human ACE (rhACE) protein and rhACE2 (Proteintech, Rosemont, IL, United States) solution was set to 500 μg ml^−1. […] Finally, the level of binding between the proteins and each molecule was determined based on the K d value.

thoracic aorta = assay: vascular function: Ang I pre-constricted isolated thoracic aorta; details: isolated aorta of SD rat, Ang I 10^–2 μM
Description: Endothelium-dependent vasorelaxation using aorta was evaluated as previously described ([Liao et al., 2019]). Briefly, after euthanizing the SD rat with sodium pentobarbital (100 mg kg^−1, i.p.) administration in combination with isoflurane inhalation, thoracic aorta (diameter: 150–250 μm, length: 2 mm) was mounted on two tungsten wires and attached to a tension sensor system (ADInstruments). After balancing for 2 h in Krebs’ solution at 37°C, arteries were exposed to 10 µM of phenylephrine (PE, Sigma-Aldrich, St. Louis, MO, United States) twice, followed by a single dose of acetylcholine (Ach, 3 μm, Sigma-Aldrich, St. Louis, MO, United States) to evaluate the integrity of the vessel. Afterward, the vessel was pre-constricted to maximum using AngI (Sigma-Aldrich) at 10^–2 μM and then treated with a series concentration of BAC or A779 (Sigma-Aldrich) or captopril at 10^–6 to 10^–1 μM. Lastly, a cumulative concentration response curve to BAC with A779 (at 10^–2 μM) was performed to assess the endothelium-dependent vasorelaxation.

Ang I = assay: serum Ang I by ELISA in SHRs after 14-day oral administration; assay type: in vivo, rat; details: oral 14 days
Source text: All three MDAs (BAC, BMC, and BHC) were purchased from Nature-Standard Co., Ltd. (Shanghai, China) and their purities were all over 98%. The anti-hypertensive effects of MDAs were studied in both acute and chronic experiments. The 16-week-old SHRs were used in animal experiments, and each group had six rats. In the acute experiment, drug administration was via i.v. injection. For i.v. injection, the animals were randomly assigned into four groups: vehicle (0.1% DMSO–0.9% salt solution, n = 6), low-dose group (0.6 mg kg^−1 body weight, n = 6), medium-dose group (2 mg kg^−1 body weight, n = 6), and high-dose group (6 mg kg^−1 body weight, n = 6). The drug was administered using a venous catheter. […] Blood pressure was recorded in real time.
Blood samples were collected from the left femoral artery of rats at the end point, followed by centrifugation at 1,000 × g for 15 min at 4°C. […] The concentrations of circulating ACE, ACE2, Ang I, Ang II, Ang (1–7), TNF-α, and IL-6 in serum were measured using the ELISA kits [ACE, cat#xy-R2401c, X-Y Biotechnology, Shanghai, China; ACE2, cat#xy-ACE2-Ra, X-Y Biotechnology; Ang I, cat#xy-E12541, X-Y Biotechnology; Ang II, cat#xy-R1430c, X-Y Biotechnology; Ang (1–7), cat#xy-Ang1-7-Ra, X-Y Biotechnology; TNF-α, cat#GM1149, Servicebio, Shanghai, China; IL-6, cat#GM1154, Servicebio] according to the manufacturer’s instructions. […]

T1 sequence (P12821 30-1306): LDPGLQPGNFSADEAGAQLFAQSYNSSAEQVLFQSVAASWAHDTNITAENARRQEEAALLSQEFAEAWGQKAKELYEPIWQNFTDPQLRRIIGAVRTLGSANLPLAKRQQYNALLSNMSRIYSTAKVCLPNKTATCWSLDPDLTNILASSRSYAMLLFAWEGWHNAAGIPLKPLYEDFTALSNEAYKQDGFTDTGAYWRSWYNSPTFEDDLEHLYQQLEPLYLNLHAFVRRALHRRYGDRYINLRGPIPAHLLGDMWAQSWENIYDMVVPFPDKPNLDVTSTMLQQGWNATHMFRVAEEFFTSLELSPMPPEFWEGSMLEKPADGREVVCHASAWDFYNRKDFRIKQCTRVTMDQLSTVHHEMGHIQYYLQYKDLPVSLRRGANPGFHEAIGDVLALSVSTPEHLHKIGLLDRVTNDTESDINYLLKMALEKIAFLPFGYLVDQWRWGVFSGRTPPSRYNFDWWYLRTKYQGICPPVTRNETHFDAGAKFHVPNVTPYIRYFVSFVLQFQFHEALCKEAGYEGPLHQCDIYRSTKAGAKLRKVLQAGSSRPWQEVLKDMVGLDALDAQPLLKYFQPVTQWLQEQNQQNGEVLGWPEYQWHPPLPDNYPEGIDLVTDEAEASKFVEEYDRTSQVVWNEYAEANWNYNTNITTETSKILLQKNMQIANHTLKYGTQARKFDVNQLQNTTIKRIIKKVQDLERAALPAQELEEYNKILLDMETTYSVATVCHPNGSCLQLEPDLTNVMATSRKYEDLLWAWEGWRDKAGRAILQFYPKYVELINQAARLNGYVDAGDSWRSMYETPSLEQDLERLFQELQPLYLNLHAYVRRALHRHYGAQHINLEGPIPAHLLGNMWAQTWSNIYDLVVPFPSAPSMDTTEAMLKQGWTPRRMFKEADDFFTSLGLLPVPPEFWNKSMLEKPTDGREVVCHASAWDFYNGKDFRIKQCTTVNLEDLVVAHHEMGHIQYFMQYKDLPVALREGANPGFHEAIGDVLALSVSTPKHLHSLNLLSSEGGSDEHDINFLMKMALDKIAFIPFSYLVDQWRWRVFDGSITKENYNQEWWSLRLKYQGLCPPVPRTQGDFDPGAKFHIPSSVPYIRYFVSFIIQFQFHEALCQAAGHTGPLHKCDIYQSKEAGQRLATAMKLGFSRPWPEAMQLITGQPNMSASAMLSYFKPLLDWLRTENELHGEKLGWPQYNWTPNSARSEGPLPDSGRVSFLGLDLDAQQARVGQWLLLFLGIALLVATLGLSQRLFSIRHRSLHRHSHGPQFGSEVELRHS

Structure (SMILES): CCN1CC2(COC)C(O)CC(OC)C34C5CC6(O)C(OC)C(O)C(O)(C5C6OC(=O)c5ccccc5)C(C(OC)C23)C14 (stereo not shown) [BAC, Benzoylaconitine]
- Kd [1]: 11 µM
- Ang I-induced vascular constriction (thoracic aorta; 10^–6 to 10^–1 μM): attenuate
- attenuation of Ang I-induced vascular constriction in presence of Mas inhibitor A779 (thoracic aorta; with A779): abolished
- level of Ang I in blood (Ang I): did not change
